According to US12673926B2, “Tetrazine compounds for in vivo imaging” (KØBENHAVNS UNIVERSITET, priority 2018, dated 2026):

Experiments:
[1] = Rate constant measurements (stopped-flow, pseudo-first order); settings: at 25° C.
Experimental: Based on these encouraging results, a study was performed to investigate whether the identified labeling conditions could be applied to Tzs that are more reactive. In this respect, Tz's with stepwise increased reactivity have been tested. […] Synthesis of respective reference compounds and precursors was completed in the same manner as discussed before. Respective second-order rate constants were determined via stopped-flow measurements. […] Radiolabeling was studied using the best aliquot conditions identified in our previous experiments. RCC for [^18F]7, [18F]8 and [^18F]9 were 35%, 30%, and 33%, respectively.
[…] Measurements were performed using a SX20 stopped flow photometer (Applied Photophysics, UK) equipped with a 360 nm LED light source and a photomultiplier type R374 in combination with a 400 nm longpass filter as detector.

TCO click ability = settings: TCO-KSMO in PBS, TLC
Experimental: To a solution of TCO-KSMO (the polymer) 500 μL (1 mg/mL) PBS was added 100 μL of the formulated tetrazine.
In given time intervals, 2 μL of the solution was withdrawn and quenched with 20 μL of a 3 mg/mL bispyridine-tetrazine solution. TLC (EtOAc) determined the fraction of tetrazines reacted to the TCO. (tetrazine; front, 1,4 adduct; baseline)

[2] = Pretargeted PET/CT imaging with TCO-BP pretreatment; format: in vivo, Balb/c mice; settings: BP-TCO pretreated mice vs controls; i.v.; 60 min dynamic PET
Experimental: All animal studied were approved by the Danish Animal Welfare Council, ministry of Justice. Five weeks old female Balb/c mice (Charles River) were acclimatized for one week with access to water and chow ad libitum. Trans-cyclooctene functionalized bisphosphonates (TCO-BP's) (100 μg. 100 μl PBS) were injected i.v. (n=2), and 1 hour later animals were administered i.v. with [^18F]9 (ca 4MBq) via the tail vein.
The animals were scanned on a dedicated small animal PET/CT scanner (Siemens) during which they were kept anesthetized by breathing sevoflurane and their temperature maintained by heating pad. Immediately after injection of [^18F]9, the animals were moved to a small animal PET/CT scanner and a 60 min dynamic PET acquisition (energy window of 350-650 KeV and a time resolution of 6 ns) was performed followed by a CT scan (360 projections, 65 kV, 500 ρA and 400 ms). Sinograms from PET scans were framed and reconstructed using a 3-dimensional maximum a posteriori algorithm with CT-based attenuation correction. PET and CT images were co-registered and analysed using Inveon software (Siemens). The mean percentage of injected dose per grams (% ID/g) in different tissues was extracted by manually creating regions of interest on fused PET/CT images.
The bioorthogonal chemistry employed is illustrated in FIG. 1. […]

[3] = Blood stability (TLC data); format: in vitro ADME; settings: mice whole blood, 37° C.
Experimental: (§1) Blood stability was tested by mixing 250 μL mice whole blood with 250 μL of the formulated Tz, the mixture was heated and shaken at 37° C. At given time points 1, 2, 3, 5, 10, 20, 60 and 180 min, 20 μL were withdrawn and cooled to 0° C. At the same time points, 20 μL were added to a 20 μL of a solution of 1 mg/mL KSMO (TCO-Polymer) in PBS and left at RT for 1 h.
(§2) The mixtures were then centrifuged at 4200 rpm for 3 min, before ACN (40 μL) was added and centrifuged again for 3 min at 4200 rpm. The supernatant was withdrawn and analyzed with TLC and/or HPLC.

[4] = TCO click ability after incubation in blood; set-up: species or system mice; settings: KSMO 1 h RT
Experimental: as §1, §2

[5] = Blood stability (TLC data); format: in vitro ADME; settings: mice whole blood, 37° C., 0 min
[6] = after 0 min in mice whole blood at 37° C.
[7] = after 1 min in mice whole blood at 37° C.
[8] = after 2 min in mice whole blood at 37° C.
[9] = after 3 min in mice whole blood at 37° C.
[10] = after 5 min in mice whole blood at 37° C.
[11] = after 10 min in mice whole blood at 37° C.
[12] = after 20 min in mice whole blood at 37° C.
[13] = after 60 min in mice whole blood at 37° C.
[14] = after 180 min in mice whole blood at 37° C.

Row | Structure (SMILES) | Second-order rate constant k2 [1] [M⁻¹ s⁻¹] | fraction of tetrazines reacted to the TCO (TCO click ability; 30 sec) [%] | fraction of tetrazines reacted to the TCO (TCO click ability; 1 min) [%] | fraction of tetrazines reacted to the TCO (TCO click ability; 2 min) [%] | fraction of tetrazines reacted to the TCO (TCO click ability; 3 min) [%] | fraction of tetrazines reacted to the TCO (TCO click ability; 5 min) [%] | Stability ([3]; 1 min) [%] | Stability ([3]; 2 min) [%] | Stability ([3]; 3 min) [%] | Stability ([3]; 5 min) [%] | Stability ([3]; 10 min) [%] | Stability ([3]; 20 min) [%] | Stability ([3]; 60 min) [%] | Stability ([3]; 180 min) [%] | TCO click ability [4, 6] [%] | TCO click ability [4, 7] [%] | TCO click ability [4, 8] [%] | TCO click ability [4, 9] [%] | TCO click ability [4, 10] [%] | TCO click ability [4, 11] [%] | also measured
1 | [18F]c1cccc(-c2nncnn2)c1 [[^18F]9] | 222 | 100 | 100 | 100 | 100 | – | – | – | – | – | – | – | – | – | – | – | – | – | – | – | fraction of tetrazines reacted to the TCO (TCO click ability; 15 sec): 100%; PET uptake in bones (knee), the target region of BP-TCOs, compared to controls [2]: higher uptake; PET uptake in control region (the heart), treated vs non-treated mice [2]: no differences could be detected
2 | Cc1nnc(-c2ccc([18F])cc2)nn1 [[^18F]6] | 2.25 | 100 | 100 | 100 | 100 | 100 | – | – | – | – | – | – | – | – | – | – | – | – | – | – | –
3 | [18F]c1ccc(-c2nncnn2)cc1 [[^18F]8] | 159 | – | 100 | 100 | 100 | 100 | 72 | 85 | 89 | 88 | 90 | 89 | 88 | 82 | 100 | 100 | 100 | 100 | 100 | 100 | TCO click ability [4, 12]: 100%; TCO click ability [4, 13]: 100%; TCO click ability [4, 14]: 100%; Stability [5]: 90%
4 | Cc1nnc(-c2cccc([18F])c2)nn1 [[^18F]7] | – | 100 | 100 | 100 | 100 | 100 | 95 | 96 | 95 | 95 | 96 | 96 | 96 | 77 | 100 | 100 | 100 | 100 | 100 | 100 | TCO click ability [4, 12]: 100%; TCO click ability [4, 13]: 100%; TCO click ability [4, 14]: 100%; Stability [5]: 94%
